The assay concerns the target T1, IGPD (imidazole glycerol phosphate dehydratase) (Staphylococcus xylosus, UniProt A0A5R9B0J7).
T1 construct: gene hisB; recombinant, pET30a-hisB, E. coli host; His tag implied (coupled to Octet NTA sensor)
T1 sequence (A0A5R9B0J7 1-192): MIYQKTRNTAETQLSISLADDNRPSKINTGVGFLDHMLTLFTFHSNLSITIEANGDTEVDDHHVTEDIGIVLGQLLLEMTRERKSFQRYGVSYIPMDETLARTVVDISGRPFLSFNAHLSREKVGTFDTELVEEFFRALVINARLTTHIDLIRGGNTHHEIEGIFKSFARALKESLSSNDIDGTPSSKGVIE
Put plainly: bio-layer interferometry (Octet, IGPD on NTA tip). The format is binding. (BLI is a label-free optical method that tracks binding on a fibre tip over time.)

The Kd is the constant that tells how readily two partners part at equilibrium. Low readings indicate a tighter complex, high ones a looser complex. `C[C@@H]1O[C@@H](OC[C@H]2O[C@@H](Oc3c(-c4ccc(O)c(O)c4)oc4cc(O)cc(O)c4c3=O)[C@H](O)[C@@H](O)[C@@H]2O)[C@H](O)[C@H](O)[C@H]1O` [rutin]: the Kd came to 1000 µM.
